Test [1] relates to DNA synthesis in L 1210 cells. In words: Inhibition of DNA synthesis in L 1210 cells (radioactive precursor incorporation). Conditions: Mus musculus. Type of test: cell-based. The procedure:
(§1) For measurement of IC50 on the synthesis of nucleic acids, 5×10^5 L 1210 cells/ml were pre-cultured at 37° C. for 1-2 hours in RPMI 1640 medium containing 10% calf serum in a CO2 incubator. One of the anthracyclinone glycosides listed in Table 4 was added and incubated for a further 15 minutes. Then 0.05 μCi/ml of ^14 C-uridine or ^14 C-thymidine was added and incubated for a further 60 minutes. At the end of incorporation of the radioactive compound, 10% trichloroacetic acid was poured into the cell suspension for termination of the reaction as well as forced precipitation. The acid-insoluble fraction was collected, rinsed three times with 5% trichloroacetic acid and then dissolved in formic acid for measurement of radioactivity. Based on the radioactivities of the test and control runs, IC50 was calculated.

Test [2] has as its system RNA synthesis in L 1210 cells. Kind of test: Inhibition of RNA synthesis in L 1210 cells (radioactive precursor incorporation). In kind it is cell-based. The following applies: Mus musculus. On the procedure: as §1
A further test relates to L 1210 leukemia. In words: Antitumor activity: prolongation of survival time of CDF1 mice after intraperitoneal transplantation of L 1210 leukemia cells. In kind it is in vivo. Conditions: Mus musculus, L1210, ip, 720 h, read-out: Prolongation rate of the survival time (T/C). On the procedure:
After intraperitoneal transplantation of L 1210 leukemia cells (1×10^5 cells/mouse), 0.25 ml/animal of solutions of one of the anthracyclinone glycosides (HCl salts) of the present invention in physiological saline was intraperitoneally injected to CDF1 mice every day for 9 days.

A further test concerns L 1210 leukemia cells. In words: Inhibition of growth of L 1210 leukemia cells in culture. In kind it is cell-based. The following applies: Mus musculus, L1210, 48 h, read-out: IC50 Cell growth. On the procedure:
L 1210 culture cells (5×10^4 cells/ml; final cell concentration) were inoculated to RPMI 1640 medium (Roswell Park Memorial Institute 1640 medium) containing 20% calf serum and then one of the anthracyclinone glycosides listed in Table 4 was added to make a final concentration of 0.1-5 μg/ml. After incubation at 37° C. for 2 days in a CO2 incubator, the number of cells was counted. Based on these counts, the 50% inhibitory concentration (IC50) of each test compound on the growth of L 1210 leukemia cells was calculated relative to the control test.

Setting [3] is: L1210, L 1210 cells, 15 min pre-incubation, 60 min with radioactive precursor (^14 C-uridine or ^14 C-thymidine), read-out: IC50 DNA synthesis.
Where [4] appears, read: L1210, L 1210 cells, 15 min pre-incubation, 60 min with radioactive precursor (^14 C-uridine or ^14 C-thymidine), read-out: IC50 RNA synthesis.
Where [5] appears, read: L 1210 cells, RPMI 1640 with 20% calf serum, 37° C., 2 days.
The mark [6] stands for this setting: L1210, read-out: IC50 DNA synthesis.
[7] abbreviates: L1210, read-out: IC50 RNA synthesis.

Molecules are shown by their SMILES. ≈ marks a conversion by molar mass, not a printed value. Read-outs that look alike come from different tables or passages of the source. Some results are limits rather than exact numbers.

For orientation: IC50 means the concentration needed to halve the response being measured. As for `COc1cccc2c1C(=O)c1c(O)c3c(c(O)c1C2=O)C[C@@](O)(C(=O)CO)C[C@@H]3O[C@H]1C[C@H](N(C)C)[C@H](O[C@H]2C[C@H](O)[C@H](O[C@H]3CCC(=O)[C@H](C)O3)[C@H](C)O2)[C@H](C)O1` [AMN--RDC], in test [1] (setting [3]), the IC50 worked out at 0.15 µg/mL (≈ 0.184 µM). For the same compound, in test [2] (setting [4]), the IC50 turned out to be 0.011 µg/mL (≈ 0.0135 µM). For the same compound, in the test with L 1210 leukemia, the response vs control in vivo at 0.32 mg/kg was determined as 114%, the response vs control in vivo at 0.63 mg/kg was determined as 142%, the response vs control in vivo at 1.25 mg/kg amounted to 158% and the response vs control in vivo at 2.5 mg/kg stood at 145%. Besides, the response vs control in vivo at 5 mg/kg in the test with L 1210 leukemia worked out at 130%. Besides, in the test on L 1210 leukemia cells (setting [5]), the IC50 is less than 0.01 µg/mL.
For the compound `COc1cccc2c1C(=O)c1c(O)c3c(c(O)c1C2=O)C[C@@](O)(C(C)=O)C[C@@H]3O[C@H]1C[C@H](N(C)C)[C@H](O[C@H]2C[C@H](OC(C)=O)[C@H](O[C@H]3CCC(=O)[C@H](C)O3)[C@H](C)O2)[C@H](C)O1` [3"-O--acetyl DMN--RDC], the IC50 in test [1] (setting [3]) was determined as 0.3 µg/mL (≈ 0.357 µM). The IC50 in test [2] (setting [4]) was determined as 0.02 µg/mL (≈ 0.0238 µM). In addition, in the test on L 1210 leukemia, the response vs control in vivo at 0.63 mg/kg stood at 114%, the response vs control in vivo at 1.25 mg/kg was 144%, the response vs control in vivo at 2.5 mg/kg is 180% and the response vs control in vivo at 5 mg/kg turned out to be 210%. In addition, the response vs control in vivo at 7.5 mg/kg in the test on L 1210 leukemia was 164%. For the same compound, in the test on L 1210 leukemia cells (setting [5]), the IC50 was less than 0.01 µg/mL.
As for `CC[C@@]1(O)C[C@H](O[C@H]2C[C@H](N(C)C)[C@H](O[C@H]3C[C@H](OC(C)=O)[C@H](O[C@H]4CCC(=O)[C@H](C)O4)[C@H](C)O3)[C@H](C)O2)c2c(cc3c(c2O)C(=O)c2c(O)cccc2C3=O)[C@H]1C(=O)OC` [3"-O--acetyl AKN--RDC], the IC50 in test [1] (setting [6]) came to 1.3 µg/mL (≈ 1.52 µM). Also, the IC50 in test [2] (setting [7]) came out at 0.1 µg/mL (≈ 0.117 µM). In the test on L 1210 leukemia, the response vs control in vivo at 2.5 mg/kg was determined as 114%, the response vs control in vivo at 5 mg/kg is 168%, the response vs control in vivo at 7.5 mg/kg stood at 186% and the response vs control in vivo at 10 mg/kg turned out to be 180%. The IC50 in the test on L 1210 leukemia cells is 0.06 µg/mL (≈ 0.0703 µM).
In the case of `COc1cccc2c1C(=O)c1c(O)c3c(c(O)c1C2=O)C[C@@](O)(C(C)=O)C[C@@H]3O[C@H]1C[C@H](N)[C@H](O)[C@H](C)O1` [Daunomycin, reference compound], the 50% inhibitory concentration (IC50) was 0.3 µg/mL (≈ 0.569 µM) in test [1] (setting [3]), 0.18 µg/mL (≈ 0.341 µM) in test [2] (setting [4]) and 0.036 µg/mL (≈ 0.0682 µM) in the test with L 1210 leukemia cells (setting [5]).
The corresponding values for `COc1cccc2c1C(=O)c1c(O)c3c(c(O)c1C2=O)C[C@@](O)(C(C)=O)C[C@@H]3O[C@H]1C[C@H](N)[C@H](O[C@H]2C[C@H](O)[C@H](O[C@H]3CCC(=O)[C@H](C)O3)[C@H](C)O2)[C@H](C)O1` [DMN--DaDC] are 1.15 µg/mL (≈ 1.49 µM), 0.165 µg/mL (≈ 0.214 µM) and 0.09 µg/mL (≈ 0.117 µM).
With `COc1cccc2c1C(=O)c1c(O)c3c(c(O)c1C2=O)C[C@@](O)(C(=O)COC(C)=O)C[C@@H]3O[C@H]1C[C@H](N(C)C)[C@H](O[C@H]2C[C@H](OC(C)=O)[C@H](O[C@H]3CCC(=O)[C@H](C)O3)[C@H](C)O2)[C@H](C)O1` [14,3"-O--diacetyl AMN--RDC], the IC50 is 0.5 µg/mL (≈ 0.557 µM) in test [1] (setting [6]), 0.014 µg/mL (≈ 0.0156 µM) in test [2] (setting [7]) and less than 0.01 µg/mL with L 1210 leukemia cells.
`COc1cccc2c1C(=O)c1c(O)c3c(c(O)c1C2=O)C[C@@](O)(C(=O)COC(=O)Cc1ccccc1)C[C@@H]3O[C@H]1C[C@H](N(C)C)[C@H](O[C@H]2C[C@H](OC(C)=O)[C@H](O[C@H]3CCC(=O)[C@H](C)O3)[C@H](C)O2)[C@H](C)O1` [14-O--phenylacetyl-3"-O--acetyl AMN--RDC]: the values for the half-maximal inhibitory concentration (IC50) (in test [1] (setting [3]); in test [2] (setting [4]); in the test with L 1210 leukemia cells (setting [5])) were 4 µg/mL (≈ 4.11 µM), 0.15 µg/mL (≈ 0.154 µM) and 0.03 µg/mL (≈ 0.0308 µM), respectively.
Consider `CN[C@H]1C[C@H](O[C@H]2C[C@](O)(C(C)=O)Cc3c(O)c4c(c(O)c32)C(=O)c2c(OC)cccc2C4=O)O[C@@H](C)[C@H]1O[C@H]1C[C@H](O)[C@H](O[C@H]2CCC(=O)[C@H](C)O2)[C@H](C)O1` [DMN--DmDC], for which the results for the IC50 (in test [1] (setting [6]); in test [2] (setting [7]); in the test on L 1210 leukemia cells) were 0.62 µg/mL (≈ 0.791 µM), 0.065 µg/mL (≈ 0.0829 µM) and 0.023 µg/mL (≈ 0.0293 µM), respectively.

The record behind these values is US4418192A, “Anthracyclinone trisaccharide compounds” (priority 1981, dated 1983).
